*1 amine or outer side, *2 acyl side, *3 side chain or, on linkers, in order; H or OH if unused. Where a SMILES comes first, the peptide text is derived from it. [ ]: non-standard residue; d: D form. The star is where a group is joined. ξ: configuration not given here. Fluorescein(5-NHCS) = O=C1OC2(c3ccc(O)cc3Oc3cc(O)ccc32)c2cc(NC(=S)*)ccc21; X18 = O=C([C@@H]1C[C@@H](O/N=C\c2ccc3c(c2)Cc2ccccc2-3)CN1[*:1])[*:2]; X19 = O=C([C@@H]1C[C@@H](O/N=C\c2ccc([N+](=O)[O-])cc2)CN1[*:1])[*:2]; X34 = O=C([C@@H]1[C@@H](O/N=C\c2ccc([N+](=O)[O-])o2)CCN1[*:1])[*:2]; X47 = O=C([C@@H]1C[C@@H](O/N=C\c2ccc([N+](=O)[O-])o2)CN1[*:1])[*:2]; X23 = O=C([C@@H]1[C@@H](O/N=C\c2ccc(OCc3ccccc3)cc2)CCN1[*:1])[*:2]; X33 = CC(/C=N\O[C@H]1C[C@@H](C(=O)[*:2])N([*:1])C1)=C\c1ccccc1; X27 = N#Cc1ccc(/C=N\O[C@@H]2C[C@@H](C(=O)[*:2])N([*:1])C2)cc1; X43 = COc1ccc(/C=N\O[C@H]2CCN([*:1])[C@@H]2C(=O)[*:2])cc1OC; X4 = O=C([C@@H]1[C@@H](O/N=C\c2ccncc2)CCN1[*:1])[*:2]; X6 = O=C([C@@H]1C[C@@H](O/N=C\c2ccoc2)CN1[*:1])[*:2]; ξPip = O=C(O)C1CCCCN1; Ava = NCCCCC(=O)O

The test deals with T1, Tumor susceptibility gene 101 protein (Homo sapiens, UniProt Q99816).
T1 sequence (Q99816 whole entry): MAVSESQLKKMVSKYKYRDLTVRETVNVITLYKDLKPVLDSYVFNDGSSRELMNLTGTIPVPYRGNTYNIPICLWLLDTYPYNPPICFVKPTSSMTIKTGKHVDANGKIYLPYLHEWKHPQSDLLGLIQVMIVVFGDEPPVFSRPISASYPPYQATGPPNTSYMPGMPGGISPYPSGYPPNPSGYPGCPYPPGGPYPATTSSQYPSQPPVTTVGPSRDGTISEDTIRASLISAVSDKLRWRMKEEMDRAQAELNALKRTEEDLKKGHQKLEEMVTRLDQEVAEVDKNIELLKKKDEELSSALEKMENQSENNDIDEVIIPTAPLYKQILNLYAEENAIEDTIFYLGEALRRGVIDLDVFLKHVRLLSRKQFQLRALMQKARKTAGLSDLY
The test can be described thus: Binding affinity to Tsg101.
Compound `C[C@H](NC(=O)[C@@H](NC(=O)[C@@H]1CCCN1C(=O)[C@H](CCC(=O)O)NC(=O)[C@@H]1CCCN1C(=O)CCCCNC(=S)Nc1ccc2c(c1)C1(OC2=O)c2ccc(O)cc2Oc2cc(O)ccc21)[C@@H](C)O)C(=O)N1CCCCC1C(=O)N1CC[C@H](O/N=C\c2ccc([N+](=O)[O-])o2)[C@H]1C(=O)N[C@@H](CCC(=O)O)C(=O)N[C@@H](CCC(=O)O)C(N)=O` (stereo not given in full) ({Fluorescein(5-NHCS)-Ava}-PEPTA[ξPip][X34]EE-NH2) showed a half-inhibitory concentration (IC50) of 18 µM. Regarding `C[C@H](NC(=O)[C@@H](NC(=O)[C@@H]1CCCN1C(=O)[C@H](CCC(=O)O)NC(=O)[C@@H]1CCCN1C(=O)CCCCNC(=S)Nc1ccc2c(c1)C1(OC2=O)c2ccc(O)cc2Oc2cc(O)ccc21)[C@@H](C)O)C(=O)N1CCCCC1C(=O)N1C[C@H](O/N=C\c2ccoc2)C[C@H]1C(=O)N[C@@H](CCC(=O)O)C(=O)N[C@@H](CCC(=O)O)C(N)=O` (stereo not given in full) ({Fluorescein(5-NHCS)-Ava}-PEPTA[ξPip][X6]EE-NH2), the IC50 was 30 µM. The compound `C[C@H](NC(=O)[C@@H](NC(=O)[C@@H]1CCCN1C(=O)[C@H](CCC(=O)O)NC(=O)[C@@H]1CCCN1C(=O)CCCCNC(=S)Nc1ccc2c(c1)C1(OC2=O)c2ccc(O)cc2Oc2cc(O)ccc21)[C@@H](C)O)C(=O)N1CCCCC1C(=O)N1C[C@H](O/N=C\c2ccc3c(c2)Cc2ccccc2-3)C[C@H]1C(=O)N[C@@H](CCC(=O)O)C(=O)N[C@@H](CCC(=O)O)C(N)=O` (stereo not given in full) ({Fluorescein(5-NHCS)-Ava}-PEPTA[ξPip][X18]EE-NH2) showed an IC50 of 27 µM.

As to `COc1ccc(/C=N\O[C@H]2CCN(C(=O)C3CCCCN3C(=O)[C@H](C)NC(=O)[C@@H](NC(=O)[C@@H]3CCCN3C(=O)[C@H](CCC(=O)O)NC(=O)[C@@H]3CCCN3C(=O)CCCCNC(=S)Nc3ccc4c(c3)C3(OC4=O)c4ccc(O)cc4Oc4cc(O)ccc43)[C@@H](C)O)[C@@H]2C(=O)N[C@@H](CCC(=O)O)C(=O)N[C@@H](CCC(=O)O)C(N)=O)cc1OC` (stereo not given in full) ({Fluorescein(5-NHCS)-Ava}-PEPTA[ξPip][X43]EE-NH2), the IC50 was found to be 22 µM. Then `CC(/C=N\O[C@H]1C[C@@H](C(=O)N[C@@H](CCC(=O)O)C(=O)N[C@@H](CCC(=O)O)C(N)=O)N(C(=O)C2CCCCN2C(=O)[C@H](C)NC(=O)[C@@H](NC(=O)[C@@H]2CCCN2C(=O)[C@H](CCC(=O)O)NC(=O)[C@@H]2CCCN2C(=O)CCCCNC(=S)Nc2ccc3c(c2)C2(OC3=O)c3ccc(O)cc3Oc3cc(O)ccc32)[C@@H](C)O)C1)=C\c1ccccc1` (stereo not given in full) ({Fluorescein(5-NHCS)-Ava}-PEPTA[ξPip][X33]EE-NH2), with 58 µM.

`C[C@H](NC(=O)[C@@H](NC(=O)[C@@H]1CCCN1C(=O)[C@H](CCC(=O)O)NC(=O)[C@@H]1CCCN1C(=O)CCCCNC(=S)Nc1ccc2c(c1)C1(OC2=O)c2ccc(O)cc2Oc2cc(O)ccc21)[C@@H](C)O)C(=O)N1CCCCC1C(=O)N1C[C@H](O/N=C\c2ccc([N+](=O)[O-])o2)C[C@H]1C(=O)N[C@@H](CCC(=O)O)C(=O)N[C@@H](CCC(=O)O)C(N)=O` (stereo not given in full) ({Fluorescein(5-NHCS)-Ava}-PEPTA[ξPip][X47]EE-NH2) had a concentration for half-maximal inhibition (IC50) of 12 µM. Then `C[C@H](NC(=O)[C@@H](NC(=O)[C@@H]1CCCN1C(=O)[C@H](CCC(=O)O)NC(=O)[C@@H]1CCCN1C(=O)CCCCNC(=S)Nc1ccc2c(c1)C1(OC2=O)c2ccc(O)cc2Oc2cc(O)ccc21)[C@@H](C)O)C(=O)N1CCCCC1C(=O)N1CC[C@H](O/N=C\c2ccc(OCc3ccccc3)cc2)[C@H]1C(=O)N[C@@H](CCC(=O)O)C(=O)N[C@@H](CCC(=O)O)C(N)=O` (stereo not given in full) ({Fluorescein(5-NHCS)-Ava}-PEPTA[ξPip][X23]EE-NH2), with 18 µM; and `C[C@H](NC(=O)[C@@H](NC(=O)[C@@H]1CCCN1C(=O)[C@H](CCC(=O)O)NC(=O)[C@@H]1CCCN1C(=O)CCCCNC(=S)Nc1ccc2c(c1)C1(OC2=O)c2ccc(O)cc2Oc2cc(O)ccc21)[C@@H](C)O)C(=O)N1CCCCC1C(=O)N1C[C@H](O/N=C\c2ccc([N+](=O)[O-])cc2)C[C@H]1C(=O)N[C@@H](CCC(=O)O)C(=O)N[C@@H](CCC(=O)O)C(N)=O` (stereo not given in full) ({Fluorescein(5-NHCS)-Ava}-PEPTA[ξPip][X19]EE-NH2), with 21 µM; and `C[C@H](NC(=O)[C@@H](NC(=O)[C@@H]1CCCN1C(=O)[C@H](CCC(=O)O)NC(=O)[C@@H]1CCCN1C(=O)CCCCNC(=S)Nc1ccc2c(c1)C1(OC2=O)c2ccc(O)cc2Oc2cc(O)ccc21)[C@@H](C)O)C(=O)N1CCCCC1C(=O)N1CC[C@H](O/N=C\c2ccncc2)[C@H]1C(=O)N[C@@H](CCC(=O)O)C(=O)N[C@@H](CCC(=O)O)C(N)=O` (stereo not given in full) ({Fluorescein(5-NHCS)-Ava}-PEPTA[ξPip][X4]EE-NH2), with 22 µM.

With `C[C@H](NC(=O)[C@@H](NC(=O)[C@@H]1CCCN1C(=O)[C@H](CCC(=O)O)NC(=O)[C@@H]1CCCN1C(=O)CCCCNC(=S)Nc1ccc2c(c1)C1(OC2=O)c2ccc(O)cc2Oc2cc(O)ccc21)[C@@H](C)O)C(=O)N1CCCCC1C(=O)N1C[C@H](O/N=C\c2ccc(C#N)cc2)C[C@H]1C(=O)N[C@@H](CCC(=O)O)C(=O)N[C@@H](CCC(=O)O)C(N)=O` (stereo not given in full) ({Fluorescein(5-NHCS)-Ava}-PEPTA[ξPip][X27]EE-NH2), the IC50 was 20 µM.

In general, IC50 refers to the concentration that inhibits the measured activity by half. Lower therefore signals inhibition by little substance.

For the origin of these results see ChEMBL document CHEMBL1140819, “Protected aminooxyprolines for expedited library synthesis: application to Tsg101-directed proline-oxime containing peptides” (Bioorg Med Chem Lett, 2008).
